Laboratory results from US5977133A, “Pyridone antibiotic with improved safety profile” (priority 1998, dated 1999).
Structures can show the parent of a compound that is named as a salt.

Columns and labels:
Format in all cases: cell-based
[1] = test system: S. aureus (CiproS); experiment: In vitro MIC, agar dilution; conditions: Staphylococcus aureus
[2] = test system: S. aureus (CiproR); experiment: In vitro MIC, agar dilution; conditions: Staphylococcus aureus
[3] = test system: S. epidermidis (CiproS); experiment: In vitro MIC, agar dilution; conditions: Staphylococcus epidermidis
[4] = test system: S. epidermidis (CiproR); experiment: In vitro MIC, agar dilution; conditions: Staphylococcus epidermidis
[5] = test system: S. pneumoniae (PenS); experiment: In vitro MIC, agar dilution; conditions: Streptococcus pneumoniae
[6] = test system: S. pneumoniae (PenR); experiment: In vitro MIC, agar dilution; conditions: Streptococcus pneumoniae
[7] = test system: S. pneumoniae (CiproR); experiment: In vitro MIC, agar dilution; conditions: Streptococcus pneumoniae, read-out: MIC Range
[8] = test system: S. pyogenes; experiment: In vitro MIC, agar dilution; conditions: Streptococcus pyogenes
[9] = test system: E. faecium (CiproS); experiment: In vitro MIC, agar dilution; conditions: Enterococcus faecium
[10] = test system: E. faecium (CiproR); experiment: In vitro MIC, agar dilution; conditions: Enterococcus faecium, read-out: MIC Range
[11] = test system: E. faecium (VanS); experiment: In vitro MIC, agar dilution; conditions: Enterococcus faecium
[12] = test system: E. faecalis (VanS); experiment: In vitro MIC, agar dilution; conditions: Enterococcus faecalis
[13] = test system: Enterococcus spp. (VanR); experiment: In vitro MIC, agar dilution; conditions: Enterococcus
[14] = test system: E. coli; experiment: In vitro MIC, agar dilution; conditions: Escherichia coli, 25 isolates
Description: (§1) Each plate was inoculated with 1:100 (or 1:10 for slow-growing strains, primarily Micrococcus and Streptococcus) dilutions of up to 32 different microorganisms, using a Steers replicator block calibrated to deliver approximately 10^4 colony forming units (CFU's). The inoculated plates were incubated at from about 35° C. to about 37 ° C. for approximately 20-24 hours. In addition, a control plate using BHI agar containing no test compound was prepared and incubated at the beginning and at the end of each test. The quinolone antibacterial ciprofloxacin was used as a control ("Cntl").
(§2) The numbers below the microorganism species indicate the nunbers of isolates tested. […] The MIC is defined as the lowest concentration of test compound yielding no growth (a slight haze or sparsely isolated colonies at the inoculum spot) as compared to the growth control containing no test compound.

[15] = test system: Salmonella spp.; experiment: In vitro MIC, agar dilution; conditions: 23 isolates
Description: as §1, §2

[16] = test system: Shigella spp.; experiment: microbe, parasite or virus in culture; conditions: read-out: MIC Range
[17] = test system: Klebsiella spp.; experiment: In vitro MIC, agar dilution; conditions: Klebsiella
[18] = test system: C. freundii; experiment: In vitro MIC, agar dilution; conditions: Citrobacter freundii
[19] = test system: P. mirabilis; experiment: In vitro MIC, agar dilution; conditions: Proteus mirabilis
[20] = test system: Providencia spp.; experiment: In vitro MIC, agar dilution; conditions: Providencia
[21] = test system: Enterobacter spp.; experiment: In vitro MIC, agar dilution; conditions: Enterobacter
[22] = test system: P. aeruginosa (CiproS); experiment: In vitro MIC, agar dilution; conditions: Pseudomonas aeruginosa
[23] = test system: P. aeruginosa (CiproR); experiment: In vitro MIC, agar dilution; conditions: Pseudomonas aeruginosa
[24] = test system: B. fragilis; experiment: In vitro MIC, agar dilution; conditions: Bacteroides fragilis
[25] = test system: C. difficile; experiment: In vitro MIC, agar dilution; conditions: Clostridioides difficile
[26] = test system: C. perfringens; experiment: microbe, parasite or virus in culture; conditions: Clostridium perfringens
[27] = test system: H. influenzae; experiment: In vitro MIC, agar dilution; conditions: Haemophilus influenzae
[28] = test system: M. catarrhalis; experiment: In vitro MIC, agar dilution; conditions: Moraxella catarrhalis
[29] = test system: Legionella spp.; experiment: microbe, parasite or virus in culture; conditions: Legionella
[30] = test system: M. pneumoniae; experiment: In vitro MIC, agar dilution; conditions: Mycoplasmoides pneumoniae, read-out: MIC Range
[31] = test system: N. gonorrhoeae; experiment: In vitro MIC, agar dilution; conditions: Neisseria gonorrhoeae
[32] = test system: H. pylori; experiment: In vitro MIC, agar dilution; conditions: Helicobacter pylori
[33] = test system: M. avium; experiment: In vitro MIC, agar dilution; conditions: Mycobacterium avium

Cc1c(N2C[C@@H]3CCCN[C@@H]3C2)c(F)cn2c(=O)c(C(=O)O)cc(C3CC3)c12 [Example 4, 1-cyclopropyl-8-(S,S-2,8-diaza-8-bicyclo[4.3.0]nonyl)-7-fluoro-4H-9-methyl-4-oxo-quinolizine-3-carboxylic acid hydrochloride]
MIC50 [1]: 0.002 µg/mL | MIC90 [1]: 0.002 µg/mL | MIC ([1]; read-out: MIC Range): 0.0005 to 0.002 µg/mL | MIC50 [2]: 0.06 µg/mL | MIC90 [2]: 0.25 µg/mL | MIC ([2]; read-out: MIC Range): 0.008 to 0.5 µg/mL | MIC50 [3]: 0.03 µg/mL | MIC90 [3]: 0.03 µg/mL | MIC ([3]; read-out: MIC Range): 0.015 to 0.03 µg/mL | MIC50 [4]: 0.25 µg/mL | MIC90 [4]: 0.5 µg/mL | MIC ([4]; read-out: MIC Range): 0.12 to 4 µg/mL | MIC50 [5]: 0.06 µg/mL | MIC90 [5]: 0.12 µg/mL | MIC ([5]; read-out: MIC Range): 0.06 to 0.12 µg/mL | MIC50 [6]: 0.03 µg/mL | MIC90 [6]: 0.03 µg/mL | MIC ([6]; read-out: MIC Range): 0.008 to 0.03 µg/mL | MIC [7]: 0.12 to 0.25 µg/mL | MIC50 [8]: 0.06 µg/mL | MIC90 [8]: 0.06 µg/mL | MIC ([8]; read-out: MIC Range): 0.03 to 0.06 µg/mL | MIC50 [9]: 0.5 µg/mL | MIC90 [9]: 1 µg/mL | MIC ([9]; read-out: MIC Range): 0.25 to 1 µg/mL | MIC [10]: 0.5 to 4 µg/mL | MIC50 [11]: 0.5 µg/mL | MIC90 [11]: 1 µg/mL | MIC ([11]; read-out: MIC Range): 0.12 to 1 µg/mL | MIC50 [12]: 0.12 µg/mL | MIC90 [12]: 0.25 µg/mL | MIC ([12]; read-out: MIC Range): 0.12 to 0.25 µg/mL | MIC50 [13]: 1 µg/mL | MIC90 [13]: 1 µg/mL | MIC ([13]; read-out: MIC Range): 0.06 to 4 µg/mL | MIC [14]: ≤ 0.008 µg/mL | MIC50 ([14]; read-out: MIC50): ≤ 0.008 µg/mL | MIC90 ([14]; read-out: MIC90): ≤ 0.008 µg/mL | MIC [15]: 0.004 to 0.12 µg/mL | MIC50 ([15]; read-out: MIC50): 0.03 µg/mL | MIC90 ([15]; read-out: MIC90): 0.06 µg/mL | MIC [16]: 0.004 to 0.015 µg/mL | MIC50 [17]: 0.06 µg/mL | MIC90 [17]: 0.06 µg/mL | MIC ([17]; read-out: MIC Range): 0.008 to 0.25 µg/mL | MIC50 [18]: 0.03 µg/mL | MIC90 [18]: 0.25 µg/mL | MIC ([18]; read-out: MIC Range): 0.015 to 0.25 µg/mL | MIC50 [19]: 0.06 µg/mL | MIC90 [19]: 0.12 µg/mL | MIC ([19]; read-out: MIC Range): 0.03 to 0.12 µg/mL | MIC50 [20]: 0.03 µg/mL | MIC90 [20]: 0.12 µg/mL | MIC ([20]; read-out: MIC Range): 0.008 to 0.25 µg/mL | MIC50 [21]: 0.03 µg/mL | MIC90 [21]: 0.12 µg/mL | MIC ([21]; read-out: MIC Range): 0.015 to 0.12 µg/mL | MIC50 [22]: 0.12 µg/mL | MIC90 [22]: 1 µg/mL | MIC ([22]; read-out: MIC Range): 0.03 to 2 µg/mL | MIC50 [23]: 8 µg/mL | MIC90 [23]: 16 µg/mL | MIC ([23]; read-out: MIC Range): 4 to 64 µg/mL | MIC50 [24]: 0.25 µg/mL | MIC90 [24]: 0.25 µg/mL | MIC ([24]; read-out: MIC Range): 0.12 to 0.5 µg/mL | MIC50 [25]: 0.25 µg/mL | MIC90 [25]: 0.25 µg/mL | MIC ([25]; read-out: MIC Range): 0.03 to 0.25 µg/mL | MIC50 [26]: 0.5 µg/mL | MIC90 [26]: 1 µg/mL | MIC ([26]; read-out: MIC Range): 0.25 to 1 µg/mL | MIC50 [27]: 0.015 µg/mL | MIC90 [27]: 0.015 µg/mL | MIC ([27]; read-out: MIC Range): 0.004 to 0.015 µg/mL | MIC50 [28]: 0.015 µg/mL | MIC90 [28]: 0.03 µg/mL | MIC ([28]; read-out: MIC Range): 0.015 to 0.03 µg/mL | MIC50 [29]: 0.25 µg/mL | MIC90 [29]: 0.25 µg/mL | MIC ([29]; read-out: MIC Range): 0.25 to 0.5 µg/mL | MIC [30]: 0.015 to 0.03 µg/mL | MIC50 [31]: 0.002 µg/mL | MIC90 [31]: 0.015 µg/mL | MIC ([31]; read-out: MIC Range): 0.002 to 0.015 µg/mL | MIC50 [32]: 0.12 µg/mL | MIC90 [32]: 0.25 µg/mL | MIC ([32]; read-out: MIC Range): 0.06 to 0.25 µg/mL | MIC50 [33]: 0.25 µg/mL | MIC90 [33]: 1 µg/mL | MIC ([33]; read-out: MIC Range): 0.25 to 4 µg/mL
